Source: patent US8278075B2, “L-cysteine-producing bacterium and a method for producing L-cysteine” (Ajinomoto Co., Inc., priority 2008, dated 2012)

How the values were obtained:
[1] = tested on: tolC-deficient JW5503 strain (BW25113ΔtolC); test: Cross streak method, growth inhibition (antibacterial) width; format: cell-based, Escherichia coli; conditions: L agar, overnight at 30° C.
Experimental: (§1) Influence of a tolC gene deficiency on N-acetylserine (NAS) and O-acetylserine (OAS) sensitivity was investigated in a strain which is deficient in a part of or the entire tolC gene by the cross streak method. In order to compare growth inhibition by NAS (2 M), OAS (2 M), L-cysteine (2 M) and L-serine (1 M), the tolC-deficient JW5503 strain, and the wild-type BW25113 strain used as a control, were cultured overnight in the L liquid medium, and each culture medium was streaked on the L agar medium with a platinum loop. A strip-shaped filter paper onto which each of the aforementioned reagents was dropped, was placed on each of the strains in a direction perpendicular to the streaking direction, and the strains were cultured overnight at 30° C. After the culture, lengths of the filter paper on which growth of the bacteria was inhibited (antibacterial widths) were measured, and the antibacterial activities of the regents on both the strains were compared.

wild-type BW25113 strain = test: as above; format: cell-based, Escherichia coli; conditions: L agar, overnight at 30° C.
Experimental: as §1

wild-type strains = test: Growth on LB agar media containing cysteine (Keio collection screening); format: cell-based, E. coli BW25113; conditions: overnight at 37° C.
Experimental: The 3,985 clones of the Keio collection were cultured at 37° C. for 15 hours in 0.5 ml of LB liquid medium. This culture medium was stamped on LB agar media containing cysteine at different concentrations (0, 15, 20, 25 mM), and culture was performed overnight at 37° C. Clones that were sensitive to cysteine at a concentration not higher than the growth inhibition concentration of cysteine for wild-type strains (20 mM) were visually selected. […] A strain which is deficient in a part of or the entire tolC gene was obtained as a clone showing particularly strong and distinctive cysteine sensitivity among the above candidates. TolC is an example of a protein called a porin, which localizes in the outer membrane and forms a channel for substance transportation via the outer membrane. Although the presence of many other porins was known for E. coli, TolC was the only porin selected by this screening, among the several candidates considered showing strong cysteine sensitivity.

[2] = tested on: tolC gene-deficient strain JW5503/pCA24; test: Growth test of serially diluted cell suspensions spotted on L agar medium containing cysteine; format: cell-based, Escherichia coli; conditions: L agar with 10, 15, 20 mM cysteine, 37° C. overnight; FIG. 1
Excerpt: Since a strain which is deficient in a part of or the entire tolC gene was obtained by the screening of the Keio Collection, growth of the gene-deficient strain was observed on the agar medium containing cysteine of different concentrations in order to analyze the sensitivity of that strain to cysteine in more detail. The strain which is deficient in a part of or the entire tolC gene used here was the JW5503 strain (Keio collection), and the parent strain thereof was the BW25113 strain (Andreas Haldimann, A. and Wanner, B. L., J. Bacteriol., 2001 November; 183 (21):6384-6393). The plasmid carrying the tolC gene for a complementation experiment was pTolC (ASKA clone, Kitagawa, M, et al., 2005; DNA Res., 12:291-299), and the vector used as the base thereof was pCA24 (vector for ASKA clone, Kitagawa, M, et al., 2005, DNA Res., 12:291-299).
The bacteria containing each of the plasmids were each inoculated into 5 ml of L medium (10 g/L of Bacto trypton, 5 g/L of Bacto yeast extract, 5 g/L of NaCl), and cultured overnight at 37° C. […]

[3] = reagent 2 M on filter paper strip
[4] = reagent 1 M on filter paper strip

SMILES | Growth inhibition width [1, 3] [mm] | Growth inhibition width (wild-type BW25113 strain; [3]) [mm] | growth inhibition concentration of cysteine for wild-type strains (wild-type strains) [mM] | cysteine sensitivity of growth compared with the control strain BW25113/pCA24 [2] | Growth inhibition width [1, 4] [mm] | Growth inhibition width (wild-type BW25113 strain; [4]) [mm]
N[C@@H](CS)C(=O)O [L-Cysteine] | 5 | <1 | 20 | marked cysteine sensitivity | – | –
N[C@@H](CO)C(=O)O [L-Serine] | – | – | – | – | 0 | 0
CC(=O)N[C@@H](CO)C(=O)O [N-Acetylserine] | 10 | <2 | – | – | – | –
CC(=O)OC[C@H](N)C(=O)O [O-Acetylserine] | 4 | <1 | – | – | – | –
